Measurements: PMC5053573, “Structure-Based Design of Tetrahydroisoquinoline-7-carboxamides as Selective Discoidin Domain Receptor 1 (DDR1) Inhibitors” (Journal of Medicinal Chemistry, 2016)

Experiments:
DDR2 = biological target: T1, DDR2 (Homo sapiens, UniProt Q16832); test: LANCE ULTRA kinase assay, DDR2; format: biochemical
T1 sequence (Q16832 22-855): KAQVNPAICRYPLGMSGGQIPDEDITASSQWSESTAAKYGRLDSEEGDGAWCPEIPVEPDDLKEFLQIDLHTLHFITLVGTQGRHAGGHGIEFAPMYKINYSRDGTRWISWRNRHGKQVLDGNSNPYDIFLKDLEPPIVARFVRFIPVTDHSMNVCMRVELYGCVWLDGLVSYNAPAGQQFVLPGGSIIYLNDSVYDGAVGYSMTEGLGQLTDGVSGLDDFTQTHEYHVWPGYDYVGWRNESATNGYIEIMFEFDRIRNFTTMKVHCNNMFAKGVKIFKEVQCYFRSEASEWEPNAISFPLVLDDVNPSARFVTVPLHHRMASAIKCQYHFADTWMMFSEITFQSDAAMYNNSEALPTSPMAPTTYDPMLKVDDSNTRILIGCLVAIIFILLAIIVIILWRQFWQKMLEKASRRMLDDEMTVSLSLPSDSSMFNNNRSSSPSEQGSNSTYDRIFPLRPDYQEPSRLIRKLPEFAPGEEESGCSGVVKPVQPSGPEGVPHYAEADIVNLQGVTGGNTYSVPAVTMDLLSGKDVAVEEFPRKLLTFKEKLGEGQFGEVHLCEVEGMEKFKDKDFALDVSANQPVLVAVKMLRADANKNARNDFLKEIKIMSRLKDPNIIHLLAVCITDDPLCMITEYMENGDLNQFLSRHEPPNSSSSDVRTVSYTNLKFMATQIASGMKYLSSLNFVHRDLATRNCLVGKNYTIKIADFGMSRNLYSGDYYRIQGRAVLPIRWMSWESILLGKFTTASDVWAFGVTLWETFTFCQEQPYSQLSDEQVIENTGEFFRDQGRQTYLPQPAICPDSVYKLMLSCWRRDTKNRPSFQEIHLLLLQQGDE

TRKB = biological target: T2, TRKB (Homo sapiens, UniProt Q16620); test: KINOMEscan binding constant, TRKB; conditions: read-out: Binding affinity (Kd, nM) TRKB
T2 construct: purchased DiscoveRx

DDR1 = DDR1 (Homo sapiens, UniProt Q08345)
Sequence of DDR1 (Q08345 19-913): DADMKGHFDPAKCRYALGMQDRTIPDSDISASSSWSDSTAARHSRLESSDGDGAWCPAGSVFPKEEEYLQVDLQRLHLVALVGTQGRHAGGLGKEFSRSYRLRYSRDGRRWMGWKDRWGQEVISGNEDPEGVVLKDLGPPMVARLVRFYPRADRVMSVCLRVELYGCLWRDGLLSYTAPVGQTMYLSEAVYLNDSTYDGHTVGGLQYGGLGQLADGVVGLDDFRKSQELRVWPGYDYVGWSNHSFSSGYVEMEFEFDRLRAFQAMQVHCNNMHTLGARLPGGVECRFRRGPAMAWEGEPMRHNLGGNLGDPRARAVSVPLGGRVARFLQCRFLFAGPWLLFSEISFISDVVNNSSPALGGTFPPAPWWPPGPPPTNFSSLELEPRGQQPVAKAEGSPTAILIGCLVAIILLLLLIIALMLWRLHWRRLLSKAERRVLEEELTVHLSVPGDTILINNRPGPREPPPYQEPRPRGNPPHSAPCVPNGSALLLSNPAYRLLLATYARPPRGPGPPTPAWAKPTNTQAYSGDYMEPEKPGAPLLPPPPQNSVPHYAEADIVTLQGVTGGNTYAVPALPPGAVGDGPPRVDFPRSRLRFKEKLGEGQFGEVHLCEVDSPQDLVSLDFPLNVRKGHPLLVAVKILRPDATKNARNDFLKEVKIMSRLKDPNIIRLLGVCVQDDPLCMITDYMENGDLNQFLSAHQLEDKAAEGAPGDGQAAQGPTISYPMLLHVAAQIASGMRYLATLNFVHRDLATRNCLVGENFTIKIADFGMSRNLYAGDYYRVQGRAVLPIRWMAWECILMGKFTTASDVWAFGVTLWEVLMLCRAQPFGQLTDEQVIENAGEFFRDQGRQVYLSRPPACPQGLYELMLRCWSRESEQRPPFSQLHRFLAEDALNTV

T2 sequence (Q16620 32-822): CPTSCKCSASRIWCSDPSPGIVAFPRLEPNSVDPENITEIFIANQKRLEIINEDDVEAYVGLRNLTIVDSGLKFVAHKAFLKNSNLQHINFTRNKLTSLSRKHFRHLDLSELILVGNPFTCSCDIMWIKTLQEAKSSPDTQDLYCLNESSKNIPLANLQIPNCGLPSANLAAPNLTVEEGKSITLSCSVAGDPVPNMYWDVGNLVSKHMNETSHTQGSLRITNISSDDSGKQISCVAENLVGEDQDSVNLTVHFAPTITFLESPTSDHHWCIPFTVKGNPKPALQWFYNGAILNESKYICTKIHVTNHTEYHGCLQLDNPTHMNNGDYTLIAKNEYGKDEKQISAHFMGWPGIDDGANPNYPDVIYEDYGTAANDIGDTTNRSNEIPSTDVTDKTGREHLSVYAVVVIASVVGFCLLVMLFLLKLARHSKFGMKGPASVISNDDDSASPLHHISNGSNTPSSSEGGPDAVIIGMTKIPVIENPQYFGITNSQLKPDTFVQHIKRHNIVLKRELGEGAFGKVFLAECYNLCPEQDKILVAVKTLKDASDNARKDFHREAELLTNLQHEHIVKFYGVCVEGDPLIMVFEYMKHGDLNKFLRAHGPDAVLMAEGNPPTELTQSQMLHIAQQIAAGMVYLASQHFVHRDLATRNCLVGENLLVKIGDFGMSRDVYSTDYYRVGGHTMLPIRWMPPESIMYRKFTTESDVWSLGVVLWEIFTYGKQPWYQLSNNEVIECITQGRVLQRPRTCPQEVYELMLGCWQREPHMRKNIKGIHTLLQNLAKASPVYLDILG

Structure (SMILES)	IC50 (DDR2) [µM]	Kd (TRKB) [nM]	DDR1 inhibition, result in words (DDR1)
CN1CCN(Cc2cc(NC(=O)c3ccc4c(c3)CN(c3cncnc3)CC4)cc(C(F)(F)F)c2)CC1 [Compound 6a]	> 7.9	29 ± 5.5	
C[C@H]1CN(c2cncnc2)Cc2cc(C(=O)Nc3cc(CN4CCN(C)CC4)cc(C(F)(F)F)c3)ccc21 [Compound 6b]		5.2 ± 1	
C[C@@H]1CN(c2cncnc2)Cc2cc(C(=O)Nc3cc(CN4CCN(C)CC4)cc(C(F)(F)F)c3)ccc21 [Compound 6c]		36 ± 2.5	
CC[C@H]1CN(c2cncnc2)Cc2cc(C(=O)Nc3cc(CN4CCN(C)CC4)cc(C(F)(F)F)c3)ccc21 [Compound 6d]	0.546 ± 0.049	22 ± 1	
CC[C@@H]1CN(c2cncnc2)Cc2cc(C(=O)Nc3cc(CN4CCN(C)CC4)cc(C(F)(F)F)c3)ccc21 [Compound 6e]	> 10	500 ± 30	
CC(C)[C@H]1CN(c2cncnc2)Cc2cc(C(=O)Nc3cc(CN4CCN(C)CC4)cc(C(F)(F)F)c3)ccc21 [Compound 6f]	> 10	340 ± 5	substantial potency loss
CC(C)[C@@H]1CN(c2cncnc2)Cc2cc(C(=O)Nc3cc(CN4CCN(C)CC4)cc(C(F)(F)F)c3)ccc21 [Compound 6g]	> 10	> 1000	almost no DDR1 inhibition
CN1CCN(Cc2cc(NC(=O)c3ccc4c(c3)CN(c3cccnc3)CC4)cc(C(F)(F)F)c2)CC1 [Compound 6h]	> 4	94 ± 6	
CN1CCN(Cc2cc(NC(=O)c3ccc4c(c3)CN(c3ccccc3)CC4)cc(C(F)(F)F)c2)CC1 [Compound 6i]	> 10	> 1000	totally abolished DDR1 inhibitory potency
